Laboratory results from patent US4921850A, “3-propenylcephem derivative” (Eisai Co., Ltd., priority 1986, dated 1990).
Converted amounts (≈) assume the structure as drawn.

Experiments:
Experiment in all cases: Anti-bacterial activity (MIC), agar dilution
Type in all cases: cell-based
[1] = test system: Morganella morganii EP-14; details: Morganella morganii, EP14, 18 h, about 10^6 CFU/ml, 37° C., read-out: MIC
Experimental: (§1) MIC (μg/ml) were determined by an agar dilution method [Chemotherapy (Japan), 29, 76-79, 1981]. Overnight cultures of the bacterial strains in Mueller-Hinton broth were diluted to final concentration of about 10^6 CFU/ml, and 5 μl of each bacterial suspension was spotted onto Mueller-Hinton agar plates that contained twofold serial dilutions of antibiotics. MICs were measured after incubation for 18 hours at 37° C.

Ser. marcescens ES-75 = details: Serratia marcescens, ES75, 18 h, Ser. marcescens ES-75; agar dilution, about 10^6 CFU/ml, 18 hours, 37° C.; read-out: MIC
Experimental: as §1

Staph. aureus 209-P = details: Staphylococcus aureus, 209P, 18 h, Staph. aureus 209-P; agar dilution, about 10^6 CFU/ml, 18 hours, 37° C.; read-out: MIC
Experimental: as §1

Pseud. aeruginosa EP-01 = details: Pseudomonas aeruginosa, EP01, 18 h, Pseud. aeruginosa EP-01; agar dilution, about 10^6 CFU/ml, 18 hours, 37° C.; read-out: MIC
Experimental: as §1

Escher. coli NIHJ = details: Escherichia coli, 18 h, Escher. coli NIHJ; agar dilution, about 10^6 CFU/ml, 18 hours, 37° C.; read-out: MIC
Experimental: as §1

Kleb. pneumoniae EK-6 = details: Klebsiella pneumoniae, EK6, 18 h, Kleb. pneumoniae EK-6; agar dilution, about 10^6 CFU/ml, 18 hours, 37° C.; read-out: MIC
Experimental: as §1

SMILES	MIC [1] [µg/mL]	MIC (Ser. marcescens ES-75) [µg/mL]	MIC (Staph. aureus 209-P) [µg/mL]	MIC (Pseud. aeruginosa EP-01) [µg/mL]	MIC (Escher. coli NIHJ) [µg/mL]	MIC (Kleb. pneumoniae EK-6) [µg/mL]
C[N+]1(C/C=C/C2=C(C(=O)[O-])N3C(=O)[C@@H](NC(=O)/C(=N\OCF)c4nsc(N)n4)[C@H]3SC2)CCN(C=O)CC1 [Example 24]	≤ 0.025	≤ 0.025	0.2 (≈ 0.352 µM)	1.56 (≈ 2.74 µM)	≤ 0.025	≤ 0.025
NC(=O)N1CC[N+](C/C=C/C2=C(C(=O)[O-])N3C(=O)[C@@H](NC(=O)/C(=N\OCF)c4nsc(N)n4)[C@H]3SC2)(CCO)CC1 [Example 28]	0.05 (≈ 0.0815 µM)	0.2 (≈ 0.326 µM)	0.4 (≈ 0.652 µM)	1.56 (≈ 2.54 µM)	0.05 (≈ 0.0815 µM)	0.05 (≈ 0.0815 µM)
Nc1nc(/C(=N/OCF)C(=O)N[C@@H]2C(=O)N3C(C(=O)[O-])=C(/C=C/C[N+]4(CCO)CCN(S(N)(=O)=O)CC4)CS[C@H]23)ns1 [Example 29]	≤ 0.025	0.1 (≈ 0.154 µM)	0.4 (≈ 0.616 µM)	0.8 (≈ 1.23 µM)	≤ 0.025	≤ 0.025
NC(=O)NCC[N+]1(C/C=C/C2=C(C(=O)[O-])N3C(=O)[C@@H](NC(=O)/C(=N\OCF)c4nsc(N)n4)[C@H]3SC2)CCN(C(N)=O)CC1 [Example 32]	≤ 0.025	0.05 (≈ 0.0763 µM)	0.2 (≈ 0.305 µM)	1.56 (≈ 2.38 µM)	≤ 0.025	≤ 0.025
NC(=O)C[N+]1(C/C=C/C2=C(C(=O)[O-])N3C(=O)[C@@H](NC(=O)/C(=N\OCF)c4nsc(N)n4)[C@H]3SC2)CCOCC1 [Example 35]	0.05 (≈ 0.0855 µM)	0.1 (≈ 0.171 µM)	0.4 (≈ 0.684 µM)	0.8 (≈ 1.37 µM)	0.05 (≈ 0.0855 µM)	≤ 0.025

The remaining lines, values ahead:

MIC [1] [µg/mL]	MIC (Ser. marcescens ES-75) [µg/mL]	MIC (Staph. aureus 209-P) [µg/mL]	MIC (Pseud. aeruginosa EP-01) [µg/mL]	MIC (Escher. coli NIHJ) [µg/mL]	MIC (Kleb. pneumoniae EK-6) [µg/mL]	SMILES
0.05 (≈ 0.0902 µM)	0.2 (≈ 0.361 µM)	0.2 (≈ 0.361 µM)	3.13 (≈ 5.64 µM)	0.05 (≈ 0.0902 µM)	0.05 (≈ 0.0902 µM)	NCC[N+]1(C/C=C/C2=C(C(=O)[O-])N3C(=O)[C@@H](NC(=O)/C(=N\OCF)c4nsc(N)n4)[C@H]3SC2)CCCC1 [Example 22]
0.1 (≈ 0.172 µM)	0.4 (≈ 0.688 µM)	0.2 (≈ 0.344 µM)	0.8 (≈ 1.38 µM)	0.1 (≈ 0.172 µM)	0.1 (≈ 0.172 µM)	CC(=N)N1CC[N+](C)(C/C=C/C2=C(C(=O)[O-])N3C(=O)[C@@H](NC(=O)/C(=N\OCF)c4nsc(N)n4)[C@H]3SC2)CC1 [Example 26]
0.05 (≈ 0.0813 µM)	0.1 (≈ 0.163 µM)	0.4 (≈ 0.651 µM)	1.56 (≈ 2.54 µM)	0.05 (≈ 0.0813 µM)	≤ 0.025	Nc1nc(/C(=N/OCF)C(=O)N[C@@H]2C(=O)N3C(C(=O)[O-])=C(/C=C/C[N+]4(CCO)CCN(CCO)CC4)CS[C@H]23)ns1 [Example 27]
0.05 (≈ 0.0777 µM)	0.2 (≈ 0.311 µM)	0.4 (≈ 0.621 µM)	1.56 (≈ 2.42 µM)	0.05 (≈ 0.0777 µM)	0.05 (≈ 0.0777 µM)	NC(=O)N1CC[N+](C/C=C/C2=C(C(=O)[O-])N3C(=O)[C@@H](NC(=O)/C(=N\OCF)c4nsc(N)n4)[C@H]3SC2)(CC(O)CO)CC1 (stereo partly drawn) [Example 30]
≤ 0.025	0.1 (≈ 0.16 µM)	0.4 (≈ 0.638 µM)	1.56 (≈ 2.49 µM)	0.05 (≈ 0.0798 µM)	≤ 0.025	NC(=O)C[N+]1(C/C=C/C2=C(C(=O)[O-])N3C(=O)[C@@H](NC(=O)/C(=N\OCF)c4nsc(N)n4)[C@H]3SC2)CCN(C(N)=O)CC1 [Example 31]
0.05 (≈ 0.0815 µM)	0.1 (≈ 0.163 µM)	0.2 (≈ 0.326 µM)	1.56 (≈ 2.54 µM)	0.05 (≈ 0.0815 µM)	≤ 0.025	NC(=O)NCC[N+]1(C/C=C/C2=C(C(=O)[O-])N3C(=O)[C@@H](NC(=O)/C(=N\OCF)c4nsc(N)n4)[C@H]3SC2)CCOCC1 [Example 36]
